The results in this text go back to PubChem BioAssay AID1159563 (GlaxoSmithKline (GSK), 2015).

The source made the active and inactive calls. How the calls were made is not given here.

The experiment relates to HepG2 cytotoxicity. The experiment is described as follows: human hepatoma cell viability loss – cytotoxicity control (AID 1159563).
A word on the IC50: it is the concentration that gives 50% inhibition. `Clc1ccc(CN2CCN(C3=NCCN3)CC2)cc1Cl`: the IC50 was 63 µM.
In the case of `O=C(N1CCc2ccccc2CC1)C1(C(=O)N2CCC(n3c(=O)[nH]c4ncccc43)CC2)CC1`, the IC50 is > 100 µM (inactive).
As for `O=C(Nc1cccc(Cl)c1)Nc1ccc([N+](=O)[O-])cc1Cl`, the half-inhibitory concentration (IC50) is 32 µM.
Regarding `N#Cc1c(Oc2cccc(Cl)c2)cccc1[N+](=O)[O-]`, the IC50 was 25 µM.
With `C=CCn1nc([N+](=O)[O-])nc1Oc1ccc(Cl)cc1Cl`, the IC50 was > 100 µM (inactive).
On to `COc1ccc2c(Cl)c(C(=O)N3CCC3)sc2c1Cl`, for which the IC50 is > 100 µM (inactive).
On to `CCN(C)Cc1ccc(N2CCC(NS(=O)(=O)c3ccc4c(c3)CCO4)CC2)nc1`, for which the IC50 was > 100 µM (inactive).
On to `Cc1cc(Br)cc(C(=O)c2c(C(C)C)c(=O)[nH]c(=O)n2Cc2ccnc(N)c2)c1`, for which the IC50 was > 100 µM (inactive).
Take `COc1ccc([N+](=O)[O-])cc1NC(=O)Nc1cccc(Cl)c1`: the IC50 was > 100 µM (inactive).
`CNS(=O)(=O)c1ccccc1Nc1nc(Nc2cc(C)nn2C)ncc1Cl`: the IC50 is 4 µM.
Under `COc1ccc(Cl)cc1CC(=O)Nc1n[nH]c(-c2ccccn2)n1` stands 32 µM; under `O=C(NCCc1nc(-c2ccc(F)c(F)c2)n[nH]1)C1CCCCC1`, > 100 µM (inactive); under `COc1ccc(Nc2nc(-c3ccccn3)cc(N3CCCC(O)C3)n2)cc1` (centres undefined), 40 µM.
As to `CC(=O)Nc1ccc(Nc2nccc(-c3cnn4ncccc34)n2)cc1C(F)(F)F`, the IC50 is > 100 µM (inactive).
For `O=C(NCCc1cccnc1)c1ccc(-c2ccccc2F)o1`, the IC50 is > 100 µM (inactive).
Take `COc1ccc(-c2cc(C)no2)cc1S(=O)(=O)Nc1ccc(F)c(Cl)c1`: the IC50 is 79 µM.
Consider `CN(C)c1ncc(-c2cncn2CCOc2ccc(Cl)cc2)cn1`, for which the IC50 was > 100 µM (inactive).
As for `CCCCn1c(=O)c2c(N)onc2n(CCCC)c1=O`, the figure is 50 µM; as for `CC(c1cc(Cl)cc(Cl)c1)N(C)c1ncc2c(N)nc(N)nc2n1` (centres undefined), 63 µM.
